Eleven molecules from PMC6225126, “Inhibitory Effects of Bioassay-Guided Isolation of Anti-Glycation Components from Taraxacum coreanum and Simultaneous Quantification” (Molecules : A Journal of Synthetic Chemistry and Natural …, 2018) can be followed below.

Values after ≈ are worked out from the molar mass of the structure shown. Where two headings read alike, the source gives them in different places.

The target of experiment [1] is T1, α-glucosidase from Saccharomyces cerevisiae (Saccharomyces cerevisiae, UniProt P53341).
T1 construct: purchased Sigma-Aldrich Chemical Company (St. Louis, MO, USA)
T1 sequence (P53341 whole entry): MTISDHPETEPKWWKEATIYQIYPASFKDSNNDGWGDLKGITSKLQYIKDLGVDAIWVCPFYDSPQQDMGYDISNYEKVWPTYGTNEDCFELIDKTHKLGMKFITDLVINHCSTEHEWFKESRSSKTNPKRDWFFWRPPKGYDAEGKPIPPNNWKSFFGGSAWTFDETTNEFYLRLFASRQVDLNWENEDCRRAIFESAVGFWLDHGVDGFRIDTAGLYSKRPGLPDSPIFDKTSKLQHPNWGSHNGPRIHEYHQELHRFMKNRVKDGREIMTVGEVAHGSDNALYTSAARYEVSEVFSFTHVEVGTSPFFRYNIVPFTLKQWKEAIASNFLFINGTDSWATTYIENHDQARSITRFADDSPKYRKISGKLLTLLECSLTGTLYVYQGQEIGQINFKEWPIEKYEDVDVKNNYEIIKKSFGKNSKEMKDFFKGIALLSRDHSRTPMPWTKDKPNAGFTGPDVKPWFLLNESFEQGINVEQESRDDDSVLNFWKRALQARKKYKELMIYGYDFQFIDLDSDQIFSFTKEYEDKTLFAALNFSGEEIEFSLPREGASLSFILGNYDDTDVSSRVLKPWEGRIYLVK
The experiment can be described thus: biochemical. It is filed as biochemical. On the procedure:
Methanol (MeOH), ethanol (EtOH), Hx, DCM, EA, BuOH, and distilled water were used for extraction, fractionation, and open column chromatography. Sephadex LH-20 (25–100 μm; Pharmacia, Stockolm, Sweden), MCI CHP 20P (Supelco, St. Louis, MO, USA), and ODS gel (400–500 mesh; Waters, Milford, MA, USA) were used for open column chromatography. Dimethyl sulfoxide-d6 (DMSO-d6) and methanol-d4 (CD3OD) were used as solvents for NMR analysis. Molecular weight was determined by using ultrahigh performance liquid chromatography and high-resolution mass spectrometry (UHPLC-HRMS) coupled with electrospray ionization hybrid linear trap-quadruple-Orbitrap MS (ESI/LTQ-Orbitrap) using an Ultimate 3000 RSLC (Thermo, Darmstadt, Germany). ^1H-nuclear magnetic resonance (NMR) spectra were recorded at 600 MHz and ^13C-NMR spectra were recorded at 150 MHz on a JEOL spectrometer. The chemical shifts are expressed in parts per million (ppm) on the δ scale and as coupling constants (J) in Hertz. […] A Waters Kromasil C18 (4.6 × 250 mm, 5 μm) column was used as the separation column. HPLC-grade solvents, such as MeOH and distilled water (H2O), were purchased from J. T. Baker® (Phillipsburg, PA, USA). HPLC-grade phosphoric acid was obtained from DEAJUNG Chemical (Siheung, Gyeonggi, Korea).
This assay was performed using a 96-well microplate reader and a spectrophotometer. […] A chromogenic substance was used for quantification purposes. After the addition of mixture solution to each well, 10 mM phosphate buffer (20 µL, pH 6.8) containing 0.2 U/mL α-glucosidase was added. This mixture was incubated at 37 °C for 15 min. The reaction was stopped by adding 80 µL of 0.2 mol/L sodium carbonate solution. […] Three replicate samples were run for each set. The inhibitory activity was calculated using the equation applied in BSA-glucose assay, but absorbance was measured instead of fluorescence.

For experiment [2], the system named is advanced glycation end-product (AGE) formation in BSA/glucose system. Briefly: Inhibition of AGE formation in BSA-glucose system (fluorescence). It is filed as biochemical, bovine. On the procedure:
Inhibition of AGE formation in BSA-glucose system was determined using the spectrophotometric method described previously. All test samples were dissolved in 10% DMSO. […] This mixture was incubated at 60 °C for 2 days. […] We used AG as a positive control. Three replicate samples were run for each set. The inhibitory activity on AGE formation was calculated using the following formula: {(Ac − As)/Ac} × 100, where Ac is fluorescence of the control, and As is the fluorescence of the sample.

Experiment [3] has as its system advanced glycation end-product (AGE) formation in BSA/MGO system. The experiment can be described thus: Inhibition of AGE formation in BSA-MGO system (fluorescence). It is filed as biochemical, bovine. The conditions noted are these: BSA 1 mg/mL, 7 mM MGO, 60 °C, 2 days, mean ± SD, n = 3; for IC50: isolated compounds. On the procedure:
The inhibitory effect on protein glycation induced by MGO (40% aqueous solution) and the main reactive intermediate compound formed in Maillard reaction were evaluated. All test samples were dissolved in 10% DMSO. […] This mixture was incubated at 60 °C for 2 days. […] We used AG as a positive control. Three replicate samples were run for each set. The inhibitory activity was calculated using the same equation applied in BSA-glucose assay.

Where [4] appears, read: isolated compounds, 2.5 mM p-NPG, pH 6.8, 37 °C, 15 min, mean ± SD, n = 3, read-out: IC50 α-Glucosidase.
[5] abbreviates: isolated compounds, read-out: IC50 α-glucosidase activity.
[6] abbreviates: isolated compounds, BSA 10 mg/mL, 0.4 M D-fructose and D-glucose, 60 °C, 2 days, mean ± SD, n = 3, read-out: IC50 BSA/Glucose (AGE formation).
The mark [7] stands for this setting: isolated compounds, 2.5 mM p-NPG, pH 6.8, 37 °C, 15 min, mean ± SD, n = 3.

As for 1-caffeoylglycerol [Compound 8], the IC50 in experiment [1] (setting [4]) amounted to 2951 ± 3.94 µM; in experiment [1] (setting [5]), 2951 ± 3.94 µM; in experiment [2] (setting [6]) it was 307 ± 10.2 µM; in experiment [3], 152 ± 65.4 µM.
Take `N=C(N)NN` [AMG, aminoguanidine, reference compound]: the “IC50 BSA/Glucose (AGE formation)” value in experiment [2] (extracts and fractions, BSA 10 mg/mL, 0.4 M D-fructose and D-glucose, 60 °C, 2 days, mean ± SD, n = 3) was 218.57 ± 24.38 µg/mL (≈ 2950 µM). Further, the IC50 in experiment [2] (setting [6]) worked out at 602 ± 50.4 µM; in experiment [3] it was 295 ± 42.7 µM. In experiment [3] (extracts and fractions), the “IC50 BSA/MGO (AGE formation)” value was determined as 67.51 ± 5.27 µg/mL (≈ 911 µM).
For the molecule `O=c1cc(-c2ccc(O)c(O)c2)oc2cc(O)cc(O)c12` [Compound 1, luteolin], the “IC50 α-Glucosidase” value in experiment [1] (setting [7]) is reported as “no inhibitory activity”. For the same molecule, the IC50 is 236 ± 9.11 µM in experiment [2] (setting [6]) and 66.1 ± 17.1 µM in experiment [3].
Turning to `O=c1cc(-c2ccc(O)c(O)c2)oc2cc(OC3OC(CO)C(O)C(O)C3O)cc(O)c12` (stereo not drawn) [Compound 2, luteolin-7-glucoside], the IC50 came to 1460 ± 162 µM in experiment [1], 123 ± 2.02 µM in experiment [2] (setting [6]) and 108 ± 8.14 µM in experiment [3].
On to `O=c1cc(-c2ccc(OC3OC(CO)C(O)C(O)C3O)c(O)c2)oc2cc(O)cc(O)c12` (stereo not drawn) [Compound 3, luteolin-4′-glucoside], for which the IC50 amounted to 598 ± 147 µM in experiment [1] (setting [5]); 423 ± 18 µM in experiment [2] (compound 3, unit as printed in running text b17, read-out: IC50 AGE formation in BSA-glucose system); 423 ± 18 µM in experiment [2] (setting [6]); 90.8 ± 21.7 µM in experiment [3].
Regarding `CC1OC(OCC2OC(Oc3cc(O)c4c(=O)cc(-c5ccc(O)c(O)c5)oc4c3)C(O)C(O)C2O)C(O)C(O)C1O` (stereo not drawn) [Compound 4, luteolin-7-rutinoside], the IC50 turned out to be 671 ± 50.8 µM in experiment [1] (setting [5]), 253 µM in experiment [2] (setting [6]) and 136 ± 2.64 µM in experiment [3].
In the case of `O=c1cc(-c2cc(O)c(O)cc2OC2OCC(O)C(O)C2O)oc2cc(OC3OC(CO)C(O)C(O)C3O)cc(O)c12` (stereo not drawn) [Compound 5, isoetin-7-glucoside-2′-xyloside], the “IC50 α-Glucosidase” value in experiment [1] (setting [7]) was “no inhibitory activity”. Besides, the IC50 was determined as 268 ± 3.41 µM in experiment [2] (setting [6]) and 130 ± 28.3 µM in experiment [3].
Take `O=c1cc(-c2cc(O)c(O)cc2OC2OCC(O)C(O)C2O)oc2cc(OC3OC(CO)C(O)C(O)C3O)cc(O)c12` (stereo not drawn) [Compound 6, isoetin-7-glucoside-2′-arabinoside]: the “IC50 α-Glucosidase” value in experiment [1] (setting [7]) was “no inhibitory activity”. Also, the IC50 was found to be 238 ± 13.8 µM in experiment [2] (setting [6]) and 148 ± 36.3 µM in experiment [3].
In the case of `O=C(O)/C=C/c1ccc(O)c(O)c1` [Compound 7, caffeic acid], the IC50 in experiment [1] (setting [4]) was 5130 ± 804 µM; in experiment [2] (setting [6]) it was 324 ± 8.29 µM; in experiment [3], 79.7 ± 23.4 µM.
Molecule `O=C(/C=C/c1ccc(O)c(O)c1)O[C@@H]1C[C@](O)(C(=O)O)C[C@@H](O)[C@H]1O` [Compound 10, chlorogenic acid] returned an IC50 in experiment [3] of 138 ± 1.91 µM.
As for chicoric acid [Compound 11], the IC50 amounted to 64.7 ± 16.7 µM in experiment [2] (setting [6]) and 141 ± 8.76 µM in experiment [3].
